Experiments:
[1] = biological target: triiodothyronine (T3) nuclear receptor; assay: T3 nuclear receptor binding assay (rat liver nuclei, [125I]-L-T3 displacement); details: 0.3 nM [125I]-L-T3, 22° C.
Experimental: The in vitro binding to T3 nuclear receptors is determined as follows:
Rat liver nuclei and plasma membrane preparations are obtained from Sprague-Dawley (CD) rats (Charles River Labs.) by differential centrifugation as described by Emmelot at al (Methods in Enzymology 31:75, Part A, 1974) with minor modificatons. The nuclear fraction obtained from the 275 ×g pellet is further purified as generally described by Spindler et al (J. Biol. Chem. 250:4118, 1975).
The novel test compounds are assayed for binding to the nuclei by the method of Spindler et al (J. Biol. Chem. 250:4118, 1975). The nuclei are incubated at 22° C. with 0.3 nM of [^125I]-L-triiodothyronine (L-T3). Parallel incubations are conducted with tubes containing, in addition to the nuclei and radioactive L-T3, either various concentrations of the test compounds or 3 μM of nonradioactive L-T3. The latter is used as a measure of nonspecific binding. The radio-activity bound to the nuclei is determined following centrifugation of the reaction mixture at 800×g for 7 minutes and washing of the pellet obtained. The amount of [^125I]-L-T3 specifically bound is determined by subtracting the amount nonspecifically bound (radioactivity contained in the nuclear pellet following incubation with excess (3 μM) non-radioactive L-T3. The concentration of test compound which inhibits the specific binding of [^125I]-L-T3 by 50 percent (IC50) is determined graphically from the reciprocal plot of the specifically bound [^125I]-L-T3 versus the various concentrations of the test compound.

serum cholesterol [2] = assay: Cholesterol lowering activity in the rat on a high cholesterol diet; type: in vivo; details: daily dose of about 20 μg/kg p.o.
Experimental: Cholesterol lowering activity is determined in the rat as follows:
Male Sprague-Dawley rats (230-250 g) (Taconic Farms) are maintained ad libitum on water and a high cholesterol diet (1.5% cholesterol and 0.5% cholic acid) for two weeks prior to and during the 7-day treatment period. Groups of animals are treated orally by gavage with the vehicle alone or with test compound for 7 consecutive days. After the last dose, animals are fasted for 18 hours and blood is collected. Blood samples are centrifuged at 2500 rpm for 10 minutes to prepare plasma for total cholesterol determination as well as LDL and HDL cholesterol concentrations. HDL values are determined after […] (Warnick and Albers, 1978). All samples are analyzed enzymatically for cholesterol with a diagnostic reagent kit (Sigma Chemical Co., St. Louis, Mo.). The analysis is performed on a Bio-Mek automated work station. LDL/VLDL fractions are precipitated in the following manner: 0.35 mL of plasma is aliquoted into Eppendorf tubes to which 12 μL of 2M manganese chloride, 11.2 μL of sodium heparin (Porcine Intestinal, 5000 units/mL), and 8.3 μL of normal saline are added. The samples are vortexed and are placed on ice for 15 minutes, then centrifuged at 4° C. for 10 minutes at 1300 rpm and the supernatant is enzymatically analyzed for cholesterol. […]

serum cholesterol [3] = assay: Cholesterol lowering activity in normocholesterolemic dogs; type: in vivo; details: dog, daily dose of about 10 μg/kg p.o.
Source text: Cholesterol lowering activity can also be evaluated in normocholesterolemic dogs fed regular chow following the procedure described above, by administration of test compound orally for 5 days.

Lp(a) = Lp(a) lowering activity in the normolipemic cynomolgus monkey; type: in vivo, cynomolgus monkey (Macaca fascicularis); details: normolipemic cynomolgus monkeys, 4 week treatment, daily oral dose of 75 μg/kg
Experimental: Cholesterol and Lp(a) lowering activity can be determined in the normolipemic cynomolgus monkey as follows:
Adult male and female cynomolgus monkeys (Macaca fascicularis) weighing 3-7 kg are used. Animals are individually housed and fed a standard monkey chow diet (Purina 5047) supplemented with fresh fruits and vegetables. Each animal serves as its own control and each dosing regime is followed by a wash out period. Test compounds were dissolved in ethanol, imbibed in fruit pulp and administered orally. Animals are dosed once a day with test compounds for a treatment period varying from 8 to 28 days. Blood samples are obtained after an overnight fast at baseline and at the end of the study. […] Plasma samples are divided into aliquots and stored at −70° C. until analyzed. Plasma concentrations of total cholesterol (TC) and triglycerides (TG) are determined by enzymatic methods using commercial kits (Sigma Diagnostics). High-density lipoprotein cholesterol (HDL-C) concentration is measured after precipitation of apoB-containing lipoproteins. Since the fasting plasma of cynomolgus monkeys on a chow diet contains negligible amounts of cholesterol in very low-density lipoprotein, the low-density lipoprotein cholesterol (LDL-C) concentration is calculated by subtracting HDL-C from TC. […] Quantification of Lp(a) is not affected by apo(a) size. […]

Structure (SMILES) | IC50 [1] | serum cholesterol lowering (serum cholesterol [2]) | serum cholesterol lowering (serum cholesterol [3]) | Lp(a) levels lowered (Lp(a))
Cc1cc(NC(=O)CC(=O)O)cc(C)c1Oc1ccc(O)c(S(=O)(=O)c2ccc(F)cc2)c1 [Example 35, N-{4-[3-(4-Fluorobenzenesulfonyl)-4-hydroxyphenoxy]-3,5-dimethylphenyl}malonamic acid] | ~1 nM |  |  | 
O=C(O)C(=O)Nc1cc(Br)c(Oc2ccc(O)c(S(=O)(=O)c3ccc(F)cc3)c2)c(Br)c1 [Example 39, N-{3,5-Dibromo-4-[3-(4-fluorobenzenesulfonyl)-4-hydroxyphenoxy]phenyl}oxamic acid] | ~0.04 nM |  |  | 
Cc1cc(NC(=O)C(=O)O)cc(C)c1Oc1ccc(O)c(S(=O)(=O)c2ccc(Cl)cc2)c1 [Example 28] | ~0.13 nM |  |  | 
Cc1cc(NC(=O)C(=O)O)cc(C)c1Oc1ccc(O)c(S(=O)(=O)c2ccc(F)cc2)c1 [Example 26, N-{4-[3-(4-Fluorobenzenesulfonyl)4-hydroxyphenoxy]-3,5-dimethylphenyl}oxamic acid] | ~0.17 nM | significantly lowers serum cholesterol | significantly lowers serum cholesterol | about 40%

Reference: patent US6790978B2, “Thyromimetic organic compounds” (Novartis AG, priority 1999, dated 2004)
